Data on five compounds can be found in patent EP0743064A1, “Leukotriene antagonists for use in the treatment or prevention of alzheimer's disease” (ELI LILLY AND COMPANY, priority 1995, dated 1996).

In general, Ki refers to a dissociation constant, usually derived from enzyme kinetics or from competition with a known ligand. The low end stands for a stronger hold on the target, the high end for a looser hold on the target.

Molecules are shown by their SMILES. Counter-ions that a name gives are not always drawn.

The target of this assay is T1, binding of tritiated LTB4 to guinea pig lung membranes (Cavia porcellus, UniProt H0VYV8).
T1 construct: contained 25 mg of guinea pig lung membrane protein; from tissue; host or cells: guinea pig lung membranes
T1 sequence (H0VYV8 1-348): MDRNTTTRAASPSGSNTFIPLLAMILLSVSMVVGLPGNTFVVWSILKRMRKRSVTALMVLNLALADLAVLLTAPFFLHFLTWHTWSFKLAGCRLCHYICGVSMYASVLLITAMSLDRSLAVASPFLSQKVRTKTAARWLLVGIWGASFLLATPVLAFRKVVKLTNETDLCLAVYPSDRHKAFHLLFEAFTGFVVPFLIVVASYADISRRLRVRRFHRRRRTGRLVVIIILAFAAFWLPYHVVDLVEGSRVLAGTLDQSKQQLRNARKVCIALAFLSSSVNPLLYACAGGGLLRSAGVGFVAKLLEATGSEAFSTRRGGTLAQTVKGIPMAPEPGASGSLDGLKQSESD
Nature of the assay: biochemical.
Protocol: The effectiveness of compounds of Formula I to inhibit the binding of tritiated LTB4 to guinea pig lung membranes was determined as follows.
[^3H]-LTB4 Radioligand Binding Assay in Guinea Pig Lung Membranes
The binding reaction was terminated by the addition of 1 mL ice cold wash buffer (25 mM Tris-HCl, pH 7.5) followed immediately by vacuum filtration over Whatman GF/C glass fiber filters using a Brandel (Gaithersburg, MD) 48 place harvester. The filters were washed three times with 1 mL of wash buffer. Retained radioactivity was determined by liquid scintillation counting at 50% counting efficiency using Ready Protein Plus cocktail (Beckman, Fullerton, CA). Nondisplaceable binding was determined in the presence of 1 mM LTB4 and was usually less than 10% of total binding. […] The data reported below is the mean -log Ki, otherwise known as the pKi, for n experiments.
With `CCc1cc(-c2ccc(F)cc2)c(O)cc1OCCCCCC(c1ccccc1)c1nn[nH]n1` (centres unmarked) [Example 84, 1-Phenyl-1-(1H-tetrazol-5-yl)-6-(2-ethyl-4-(4-fluorophenyl)-5-hydroxyphenoxy)hexane], the Ki was 6.31 nM.
`CCc1cc(-c2ccc(C(F)(F)F)cc2)c(O)cc1OCCCCCC(C)(C)c1nn[nH]n1` [disodium salt] showed an inhibitory constant (Ki) of 66.1 nM.
`CCc1cc(-c2ccc(F)cc2)c(O)cc1OCCCCCC(c1ccc(OCC(=O)N(C)C)cc1)c1nn[nH]n1` (centres unmarked) [Example 86, 1-(4-(Dimethylaminocarbonylmethoxy)phenyl)-1-(1H-tetrazol-5-yl)-6-(2-ethyl-4-(4-fluorophenyl)-5-hydroxyphenoxy)hexane] gave a Ki of 3.8 nM.
`CCCc1c(OCCCOc2cc(O)c(-c3ccccc3)cc2CC)cccc1Oc1ccccc1C(=O)O` [Example 61, 2-[2-Propyl-3-[3-(2-ethyl-5-hydroxy-4-phenylphenoxy)-propoxy]phenoxy]benzoic acid sodium salt hemihydrate] had a Ki of 14.1 nM.
Take `CCc1cc(-c2cccc(N(C)C)c2)c(O)cc1OCCCCCC(C)(C)c1nn[nH]n1` [disodium salt]: the Ki is 63.1 nM.
